Measurements as given in ChEMBL document CHEMBL1201862, “PubChem BioAssay data set” (2004).
Activity calls are given as the source filed them.

How the values were obtained:
[1] = target: Glyceraldehyde-3-phosphate dehydrogenase (Homo sapiens, UniProt P04406)
[2] = target: Alkaline phosphatase, placental type (Homo sapiens, UniProt P05187); assay: PLAP enzyme inhibitors, confirmation, biochemical, luminescence (AID 1512); type: functional
[3] = target: T1, Alkaline phosphatase, tissue-nonspecific isozyme (Homo sapiens, UniProt P05186); assay: human TNAP enzyme inhibitors, SAR follow-up, biochemical, luminescent, dose response (AID 1056)
T1 sequence (P05186 whole entry): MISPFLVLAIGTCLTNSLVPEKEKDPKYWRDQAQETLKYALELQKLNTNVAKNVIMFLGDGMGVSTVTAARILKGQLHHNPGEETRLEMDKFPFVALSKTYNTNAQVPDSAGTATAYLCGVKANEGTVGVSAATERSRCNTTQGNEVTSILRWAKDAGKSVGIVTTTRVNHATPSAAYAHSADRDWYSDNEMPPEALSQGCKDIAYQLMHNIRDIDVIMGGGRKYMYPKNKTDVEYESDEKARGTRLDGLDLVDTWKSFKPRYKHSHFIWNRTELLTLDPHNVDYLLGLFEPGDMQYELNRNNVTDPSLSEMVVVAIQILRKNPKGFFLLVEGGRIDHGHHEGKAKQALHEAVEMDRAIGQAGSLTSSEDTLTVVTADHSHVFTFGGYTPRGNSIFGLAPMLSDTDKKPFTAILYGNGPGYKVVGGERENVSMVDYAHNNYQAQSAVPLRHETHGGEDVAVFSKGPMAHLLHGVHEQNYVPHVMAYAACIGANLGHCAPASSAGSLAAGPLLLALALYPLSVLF

Ion channel NompC = Ion channel NompC (Danio rerio, UniProt Q7T1G6); assay: Dose response cell-based high-throughput screening assay for agonists of the transient receptor potential channel N1 (TRPN1). [Related pubchem assays (depositor defined):AID1424, AID1448]; type: functional
Mucolipin-3 = target: T2, Mucolipin-3 (Homo sapiens, UniProt Q8TDD5); assay: Fluorescence counterscreen assay for […] agonists: dose response cell-based high-throughput screening assay to identify agonists of the transient receptor potential channel ML3 (TRPML3). [Related pubchem assays: 1424, 1448 ]; type: functional
T2 sequence (Q8TDD5 whole entry): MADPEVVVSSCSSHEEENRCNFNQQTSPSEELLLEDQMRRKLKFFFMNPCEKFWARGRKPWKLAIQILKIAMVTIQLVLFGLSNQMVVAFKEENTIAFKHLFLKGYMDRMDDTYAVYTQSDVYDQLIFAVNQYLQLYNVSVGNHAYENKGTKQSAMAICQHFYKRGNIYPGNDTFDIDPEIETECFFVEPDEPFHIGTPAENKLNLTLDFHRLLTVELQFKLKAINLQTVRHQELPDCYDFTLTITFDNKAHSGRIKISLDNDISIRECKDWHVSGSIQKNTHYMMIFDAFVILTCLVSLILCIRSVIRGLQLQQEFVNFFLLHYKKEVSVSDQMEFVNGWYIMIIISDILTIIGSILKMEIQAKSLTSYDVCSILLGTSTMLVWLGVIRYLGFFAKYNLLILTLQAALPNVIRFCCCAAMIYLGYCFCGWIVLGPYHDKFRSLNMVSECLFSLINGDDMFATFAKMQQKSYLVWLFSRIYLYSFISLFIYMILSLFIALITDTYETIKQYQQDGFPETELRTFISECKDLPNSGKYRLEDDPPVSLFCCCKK

[4] = target: Lysine-specific demethylase 4C (Homo sapiens, UniProt Q9H3R0); assay: GASC-1 (JMJD2C) histone demethylase inhibitors, dose response, biochemical, DELFIA europium, cherry-picked samples (AID 488835); type: functional
[5] = target: Peroxisome proliferator-activated receptor gamma/Nuclear receptor coactivator 2 (Homo sapiens, UniProt P37231); assay: (§1) TR-FRET dose response biochemical High Throughput Screening assay for agonists of the steroid receptor coactivator 2 (SRC-2) recruitment by the peroxisome proliferator-activated receptor gamma (PPAR gamma): non-selective agonists. [Related pubchem assays: 1297, 1032 ]; type: functional
Sequence of Peroxisome proliferator-activated receptor gamma/Nuclear receptor coactivator 2 (P37231 whole entry): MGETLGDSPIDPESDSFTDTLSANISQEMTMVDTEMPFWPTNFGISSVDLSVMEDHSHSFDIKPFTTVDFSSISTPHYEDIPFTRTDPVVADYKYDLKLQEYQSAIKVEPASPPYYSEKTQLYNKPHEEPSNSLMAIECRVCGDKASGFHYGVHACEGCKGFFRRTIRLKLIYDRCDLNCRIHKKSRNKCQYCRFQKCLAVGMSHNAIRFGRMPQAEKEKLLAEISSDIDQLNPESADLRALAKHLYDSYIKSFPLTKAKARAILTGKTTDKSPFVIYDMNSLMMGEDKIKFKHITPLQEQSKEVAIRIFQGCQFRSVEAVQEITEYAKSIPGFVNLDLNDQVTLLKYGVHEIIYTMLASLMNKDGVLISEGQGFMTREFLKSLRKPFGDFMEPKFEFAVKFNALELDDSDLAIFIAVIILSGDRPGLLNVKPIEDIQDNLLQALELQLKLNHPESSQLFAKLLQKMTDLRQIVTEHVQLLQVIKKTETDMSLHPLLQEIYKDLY
Sequence of Peroxisome proliferator-activated receptor gamma/Nuclear receptor coactivator 2 (Q15596 whole entry, further chain): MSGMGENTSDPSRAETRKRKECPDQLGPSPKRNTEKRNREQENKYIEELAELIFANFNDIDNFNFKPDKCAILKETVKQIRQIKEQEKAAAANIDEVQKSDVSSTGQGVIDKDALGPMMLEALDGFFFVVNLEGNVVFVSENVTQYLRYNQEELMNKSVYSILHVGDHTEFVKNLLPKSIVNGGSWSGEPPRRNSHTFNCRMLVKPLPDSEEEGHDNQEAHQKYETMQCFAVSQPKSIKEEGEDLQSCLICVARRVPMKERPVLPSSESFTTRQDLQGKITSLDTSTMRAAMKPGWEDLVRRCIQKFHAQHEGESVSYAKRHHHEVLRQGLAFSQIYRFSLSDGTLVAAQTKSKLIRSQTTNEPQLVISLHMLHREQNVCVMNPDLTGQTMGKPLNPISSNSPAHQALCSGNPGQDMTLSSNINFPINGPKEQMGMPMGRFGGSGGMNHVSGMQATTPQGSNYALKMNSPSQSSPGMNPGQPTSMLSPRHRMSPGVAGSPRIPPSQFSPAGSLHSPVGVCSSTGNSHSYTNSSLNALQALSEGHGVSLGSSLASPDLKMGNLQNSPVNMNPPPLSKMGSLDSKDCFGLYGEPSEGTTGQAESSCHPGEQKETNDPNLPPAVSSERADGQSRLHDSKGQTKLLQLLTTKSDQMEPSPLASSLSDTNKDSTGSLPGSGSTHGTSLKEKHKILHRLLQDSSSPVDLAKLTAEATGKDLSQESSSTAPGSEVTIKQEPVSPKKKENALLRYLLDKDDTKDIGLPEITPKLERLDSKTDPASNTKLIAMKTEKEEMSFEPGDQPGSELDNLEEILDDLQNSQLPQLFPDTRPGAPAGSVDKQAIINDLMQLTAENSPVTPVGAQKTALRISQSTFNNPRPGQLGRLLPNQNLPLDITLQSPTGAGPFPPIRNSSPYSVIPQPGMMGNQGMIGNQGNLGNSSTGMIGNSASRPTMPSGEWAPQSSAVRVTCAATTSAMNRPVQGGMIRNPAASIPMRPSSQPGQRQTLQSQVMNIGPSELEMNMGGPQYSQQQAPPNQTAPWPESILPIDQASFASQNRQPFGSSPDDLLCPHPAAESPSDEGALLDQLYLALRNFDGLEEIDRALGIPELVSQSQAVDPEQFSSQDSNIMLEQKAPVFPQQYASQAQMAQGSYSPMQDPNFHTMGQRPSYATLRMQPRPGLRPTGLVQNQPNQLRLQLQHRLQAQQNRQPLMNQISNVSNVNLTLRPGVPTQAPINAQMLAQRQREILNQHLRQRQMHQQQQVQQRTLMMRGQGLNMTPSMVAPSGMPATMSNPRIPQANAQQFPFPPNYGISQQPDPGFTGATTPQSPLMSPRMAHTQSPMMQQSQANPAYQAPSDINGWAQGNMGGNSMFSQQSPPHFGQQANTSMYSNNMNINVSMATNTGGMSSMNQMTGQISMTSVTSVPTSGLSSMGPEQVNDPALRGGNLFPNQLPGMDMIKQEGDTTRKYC

[6] = target: Peroxisome proliferator-activated receptor gamma/Nuclear receptor coactivator 1 (Homo sapiens, UniProt P37231); assay: as §1, with “1 (SRC-1)” for “2 (SRC-2)”, “assays (depositor defined):AID1300, AID1808, AID504735, AID631]” for “assays: 1297, 1032 ]”; type: protein assay
[7] = target: Peroxisome proliferator-activated receptor gamma/Nuclear receptor coactivator 3 (Homo sapiens, UniProt P37231); assay: as §1, with “3 (SRC-3)” for “2 (SRC-2)”, “1301 (Confirmation screen.), 1048 (Primary screen.)]” for “1297, 1032 ]”; type: functional
Sequence of Peroxisome proliferator-activated receptor gamma/Nuclear receptor coactivator 3 (P37231 whole entry): as the sequence (P37231 whole entry) above
Sequence of Peroxisome proliferator-activated receptor gamma/Nuclear receptor coactivator 3 (Q9Y6Q9 whole entry, further chain): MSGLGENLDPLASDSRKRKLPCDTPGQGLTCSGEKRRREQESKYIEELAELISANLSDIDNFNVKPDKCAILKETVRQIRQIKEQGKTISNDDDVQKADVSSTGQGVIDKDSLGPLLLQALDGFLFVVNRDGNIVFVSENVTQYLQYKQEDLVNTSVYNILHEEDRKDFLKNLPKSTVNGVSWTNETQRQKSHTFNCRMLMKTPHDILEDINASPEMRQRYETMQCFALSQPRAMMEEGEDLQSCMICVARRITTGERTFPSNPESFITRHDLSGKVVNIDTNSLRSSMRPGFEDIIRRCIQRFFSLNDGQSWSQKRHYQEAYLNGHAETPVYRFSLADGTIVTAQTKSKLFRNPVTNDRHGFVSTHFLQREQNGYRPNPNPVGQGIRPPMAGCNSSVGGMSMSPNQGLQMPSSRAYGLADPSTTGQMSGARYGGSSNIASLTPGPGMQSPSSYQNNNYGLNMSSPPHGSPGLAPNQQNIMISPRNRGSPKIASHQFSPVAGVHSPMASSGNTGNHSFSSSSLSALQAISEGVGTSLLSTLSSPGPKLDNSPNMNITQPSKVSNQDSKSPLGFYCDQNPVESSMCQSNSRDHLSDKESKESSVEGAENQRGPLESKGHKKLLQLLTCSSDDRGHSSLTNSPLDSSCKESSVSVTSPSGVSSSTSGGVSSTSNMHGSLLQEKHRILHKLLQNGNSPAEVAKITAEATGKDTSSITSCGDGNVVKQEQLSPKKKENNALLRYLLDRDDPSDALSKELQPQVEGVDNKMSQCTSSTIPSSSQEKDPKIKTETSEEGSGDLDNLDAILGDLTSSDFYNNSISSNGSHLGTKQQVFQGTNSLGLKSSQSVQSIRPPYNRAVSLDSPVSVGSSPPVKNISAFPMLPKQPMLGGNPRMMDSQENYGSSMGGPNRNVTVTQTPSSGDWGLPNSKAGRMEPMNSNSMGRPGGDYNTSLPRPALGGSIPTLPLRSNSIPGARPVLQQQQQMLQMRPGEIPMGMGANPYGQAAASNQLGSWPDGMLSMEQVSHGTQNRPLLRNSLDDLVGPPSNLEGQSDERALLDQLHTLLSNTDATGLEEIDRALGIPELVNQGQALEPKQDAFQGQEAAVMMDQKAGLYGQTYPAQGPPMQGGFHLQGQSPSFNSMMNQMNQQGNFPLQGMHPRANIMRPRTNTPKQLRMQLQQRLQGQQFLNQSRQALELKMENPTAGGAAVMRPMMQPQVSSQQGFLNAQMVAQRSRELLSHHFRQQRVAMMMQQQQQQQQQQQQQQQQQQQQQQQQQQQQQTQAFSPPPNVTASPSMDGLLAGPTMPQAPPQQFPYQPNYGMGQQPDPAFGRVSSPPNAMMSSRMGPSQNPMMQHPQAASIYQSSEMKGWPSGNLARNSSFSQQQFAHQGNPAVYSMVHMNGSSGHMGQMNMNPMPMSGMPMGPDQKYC

[8] = target: T3, Heat shock factor protein 1 (Mus musculus, UniProt P38532); assay: HSF1 potentiators in luciferase reporter cells, confirmation, cell-based, NIH3T3, luminescence, dose retest (AID 435004); type: functional;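 note: stress induced by proteasome inhibitor MG132 added 30 min after compound; luciferase reporter driven by HSF1 response element in NIH3T3 cells; actives raise luminescence as potentiators of the MG132 stress response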
T3 sequence (P38532 whole entry): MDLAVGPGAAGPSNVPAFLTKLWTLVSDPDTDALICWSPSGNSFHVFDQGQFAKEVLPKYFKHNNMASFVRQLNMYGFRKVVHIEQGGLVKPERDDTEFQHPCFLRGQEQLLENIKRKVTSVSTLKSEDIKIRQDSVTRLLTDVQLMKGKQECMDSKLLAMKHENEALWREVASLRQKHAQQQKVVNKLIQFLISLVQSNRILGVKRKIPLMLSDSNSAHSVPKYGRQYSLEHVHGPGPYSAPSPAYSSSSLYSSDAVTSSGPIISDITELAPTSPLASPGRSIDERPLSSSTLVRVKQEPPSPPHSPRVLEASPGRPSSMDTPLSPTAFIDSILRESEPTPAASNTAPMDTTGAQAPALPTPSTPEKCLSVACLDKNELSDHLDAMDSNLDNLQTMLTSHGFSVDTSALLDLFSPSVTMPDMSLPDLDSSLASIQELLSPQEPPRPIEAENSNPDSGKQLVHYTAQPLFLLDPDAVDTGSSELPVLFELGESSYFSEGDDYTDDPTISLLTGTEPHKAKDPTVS

[9] = target: Heat shock protein HSP 90-alpha (Homo sapiens, UniProt P07900); type: functional, organism-based
[10] = target: G-protein coupled receptor 55 (Homo sapiens, UniProt Q9Y2T6); assay: GPR55 antagonists blocking LPI-driven arrestin recruitment, primary screen, imaging, U2OS, beta-arrestin-GFP, LPI agonist (AID 2013); type: functional;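 note: antagonist potency measured as reduced agonist-driven arrestin aggregation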

Sequence of Alkaline phosphatase, placental type (P05187 whole entry): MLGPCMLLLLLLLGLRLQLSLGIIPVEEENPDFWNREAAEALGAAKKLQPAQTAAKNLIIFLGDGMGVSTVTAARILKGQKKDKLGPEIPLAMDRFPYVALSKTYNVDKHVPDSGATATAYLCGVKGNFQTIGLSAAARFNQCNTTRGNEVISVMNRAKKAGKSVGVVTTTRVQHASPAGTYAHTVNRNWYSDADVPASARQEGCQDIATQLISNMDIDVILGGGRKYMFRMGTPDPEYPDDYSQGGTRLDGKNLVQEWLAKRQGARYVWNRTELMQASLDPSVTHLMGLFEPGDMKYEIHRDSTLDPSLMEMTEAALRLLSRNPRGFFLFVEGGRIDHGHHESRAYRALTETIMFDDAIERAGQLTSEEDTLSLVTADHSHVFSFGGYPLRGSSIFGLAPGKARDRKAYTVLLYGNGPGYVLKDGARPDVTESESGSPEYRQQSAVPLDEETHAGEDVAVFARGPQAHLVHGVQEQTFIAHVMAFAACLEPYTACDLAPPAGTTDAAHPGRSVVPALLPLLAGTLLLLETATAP
Sequence of Glyceraldehyde-3-phosphate dehydrogenase (P04406 whole entry): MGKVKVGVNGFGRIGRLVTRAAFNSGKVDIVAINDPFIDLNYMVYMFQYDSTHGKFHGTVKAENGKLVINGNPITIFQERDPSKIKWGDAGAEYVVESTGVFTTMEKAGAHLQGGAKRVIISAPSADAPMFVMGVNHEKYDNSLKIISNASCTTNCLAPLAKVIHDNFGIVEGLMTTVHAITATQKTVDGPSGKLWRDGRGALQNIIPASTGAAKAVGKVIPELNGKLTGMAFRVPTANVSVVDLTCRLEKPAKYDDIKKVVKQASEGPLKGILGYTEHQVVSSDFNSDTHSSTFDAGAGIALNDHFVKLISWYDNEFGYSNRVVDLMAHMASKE

SMILES: COC(=O)c1cc(-c2cc(F)c(Cl)cc2Cl)n[nH]1
- IC50 [1]: > 100 µM (not active)
- IC50 [2]: > 100 µM (inactive)
- IC50 [3]: 0.911 µM (active)

SMILES: CCOC(=O)c1ccc(NC(=O)Nc2ccc(F)cc2)cc1
- EC50 (Ion channel NompC): > 9.97 µM (inactive)
- EC50 (Mucolipin-3): > 29.9 µM (not active)

SMILES: CCOc1ccc(NC(=O)CSc2nnc(-c3ccccc3)n2N)cc1
- AC50 [4]: 12.1 µM (active)

SMILES: Cn1c(=O)cc(SCC(=O)N2CCC3(CC2)OCCO3)c2ccccc21
- EC50 [5]: > 79.4 µM (not active)
- EC50 [6]: > 79.4 µM (inactive)
- EC50 [7]: > 79.4 µM (not active)

SMILES: Brc1ccc(-c2nc3ccccc3s2)s1
- EC50 [5]: 3.18 µM (active)
- EC50 [6]: 3.34 µM (active)
- EC50 [7]: 81.4 µM (not active)

SMILES: Clc1ccccc1CN(Cc1ccco1)Cc1nnnn1C1CCCC1
- EC50 [8]: > 260 µM (inactive)
- AC50 [9]: 5.48 µM (active)
- IC50 [10]: 4.16 µM (active)
